The target of one assay is DGKα (Homo sapiens (Human), UniProt P23743). As to the kind of experiment: Biochemical DGK IC50 assay (ADP-Glo, lipid micelle substrate), DGKα. Also: full length DGKα 7.5 nM. Conditions: full length DGKα […], ATP 140 μM, DAG 80 μM. Put shortly: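 Full-length human DGKα assayed by ADP-Glo with DAG/PS lipid micelle substrate at room temperature in 50 mM HEPES, 10 mM MgCl2, 0.01% BSA, 0.1 mM Na3VO4, 0.005% Tween-20, 0.01 mM CaCl2.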
In general terms: In ADP-Glo the light output rises with the ADP produced.

Another assay deals with DGKζ (Homo sapiens (Human), UniProt Q13574). The assay can be described thus: Biochemical DGK IC50 assay (ADP-Glo, lipid micelle substrate), DGKζ. Conditions: full length DGKζ 0.5 nM, ATP 140 μM, DAG 80 μM. Put shortly:
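Full-length human His-TEV-tagged DGKζ, expressed in Sf9 cells and purified, was run at room temperature on DAG/PS lipid micelles in 50 mM HEPES, 10 mM MgCl2, 0.01 mM CaCl2 buffer. After 1 h reaction, ADP formed was detected by ADP-Glo luminescence. IC50s came from inhibition across increasing compound concentrations.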

pIC50: −log10 of the molar value.

Chain of DGKζ (Q13574 other isoform, or with tags, fused parts or gaps): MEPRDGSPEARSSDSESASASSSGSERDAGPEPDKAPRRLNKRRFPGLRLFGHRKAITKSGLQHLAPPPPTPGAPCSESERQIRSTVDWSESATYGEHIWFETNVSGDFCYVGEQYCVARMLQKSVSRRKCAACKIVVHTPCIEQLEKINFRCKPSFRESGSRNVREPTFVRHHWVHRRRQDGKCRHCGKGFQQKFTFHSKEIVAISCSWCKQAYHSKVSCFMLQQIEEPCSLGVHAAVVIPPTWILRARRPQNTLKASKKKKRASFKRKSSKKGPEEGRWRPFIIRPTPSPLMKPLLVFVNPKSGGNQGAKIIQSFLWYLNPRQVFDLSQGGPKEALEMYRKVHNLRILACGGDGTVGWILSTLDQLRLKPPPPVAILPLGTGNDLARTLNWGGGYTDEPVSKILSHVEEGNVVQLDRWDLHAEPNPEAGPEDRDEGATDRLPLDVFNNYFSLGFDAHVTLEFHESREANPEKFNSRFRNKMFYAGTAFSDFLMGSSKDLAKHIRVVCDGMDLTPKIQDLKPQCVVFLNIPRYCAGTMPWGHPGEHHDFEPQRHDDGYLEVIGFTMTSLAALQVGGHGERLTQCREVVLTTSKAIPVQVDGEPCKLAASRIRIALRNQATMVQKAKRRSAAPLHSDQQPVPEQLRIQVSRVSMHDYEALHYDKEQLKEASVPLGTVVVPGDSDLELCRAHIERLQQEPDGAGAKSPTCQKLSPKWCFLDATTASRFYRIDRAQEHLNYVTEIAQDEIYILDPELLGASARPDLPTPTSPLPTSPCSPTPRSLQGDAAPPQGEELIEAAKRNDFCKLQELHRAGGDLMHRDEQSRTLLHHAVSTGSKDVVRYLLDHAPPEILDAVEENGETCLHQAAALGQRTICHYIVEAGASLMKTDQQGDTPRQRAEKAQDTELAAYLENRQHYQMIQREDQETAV
Chain of DGKα (P23743 whole entry): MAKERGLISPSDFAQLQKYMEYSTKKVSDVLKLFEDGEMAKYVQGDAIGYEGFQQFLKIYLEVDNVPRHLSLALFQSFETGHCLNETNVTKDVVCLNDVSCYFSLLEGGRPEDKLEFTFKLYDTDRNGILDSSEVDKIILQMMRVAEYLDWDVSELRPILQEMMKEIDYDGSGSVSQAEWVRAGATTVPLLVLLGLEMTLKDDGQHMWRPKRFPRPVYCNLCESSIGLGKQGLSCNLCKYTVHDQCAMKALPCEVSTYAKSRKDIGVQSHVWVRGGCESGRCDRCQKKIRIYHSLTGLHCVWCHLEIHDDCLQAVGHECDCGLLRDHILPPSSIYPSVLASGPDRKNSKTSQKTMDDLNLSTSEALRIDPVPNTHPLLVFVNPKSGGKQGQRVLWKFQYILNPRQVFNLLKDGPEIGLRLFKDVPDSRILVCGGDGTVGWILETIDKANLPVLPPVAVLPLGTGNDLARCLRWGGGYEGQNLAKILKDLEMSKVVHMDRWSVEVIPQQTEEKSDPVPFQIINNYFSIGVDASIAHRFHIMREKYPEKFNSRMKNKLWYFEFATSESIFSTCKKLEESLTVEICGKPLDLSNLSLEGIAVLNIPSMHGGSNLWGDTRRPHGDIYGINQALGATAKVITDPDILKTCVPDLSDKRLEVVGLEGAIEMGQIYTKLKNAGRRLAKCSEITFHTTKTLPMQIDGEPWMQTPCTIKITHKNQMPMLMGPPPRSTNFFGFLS

Consider `CC[C@H]1CN(C(C)c2ccc(C)cc2C)[C@H](CC)CN1c1cc(=O)n(C)c2cn(CC#N)nc12` (stereo partly drawn) [Compound A6, 2-(7-((2S,5R)-4-(1-(2,4-dimethylphenyl)ethyl)-2,5-diethylpiperazin-1-yl)-4-methyl-5-oxo-4,5-dihydro-2H-pyrazolo[4,3-b]pyridin-2-yl)acetonitrile], for which the pIC50 is 5.07 on DGKα and 6.66 on DGKζ.

For the compound `CC[C@H]1CN(C(C)c2ccc(OC)c(F)c2)[C@H](CC)CN1c1cc(=O)n(C)c2cn(CC#N)nc12` (stereo partly drawn) [Compound A20, 2-(7-((2S,5R)-2,5-diethyl-4-(1-(3-fluoro-4-methoxyphenyl)ethyl)piperazin-1-yl)-4-methyl-5-oxo-4,5-dihydro-2H-pyrazolo[4,3-b]pyridin-2-yl)acetonitrile], the pIC50 on DGKα is 6.42; against DGKζ, 6.51.

Usually pIC50 stands for −log10 of the IC50, conventionally taken in molar units. The low end stands for a large IC50, the high end for a small IC50.

The record behind these values is patent US20250346597A1, “CONDENSED HETEROCYCLIC COMPOUNDS AS INHIBITOR OF DIACYLGLYCEROL KINASES” (BEONE MEDICINES I GMBH, priority 2023, published 2025).
